Test results: patent US9222016B2, “Compound having fluorescent chromophore, ion concentration sensor including compound, reagent including compound, reagent kit provided with reagent, precursor of compound, and method for synthesizing compound” (National University Corporation Hokkaido University, priority 2011, dated 2015)

How the values were obtained:
[1] = Fluorescence spectrum measurement of triazapentalenes (Example 3); format: physicochemical; conditions: for λem (emission wavelength): excitation at absorption maximum; for φr (relative fluorescence quantum yield): dichloromethane, standard 9,10-bis(phenyl ethynyl)anthracene (0.96)
Procedure: The fluorescence spectrum of various triazapentalenes that have been synthesized by the same method as described in Example 1 and Example 2 was measured. A method for measurement will be specifically described below.
As triazapentalenes, compounds with the substituent group being a phenyl group, methoxyphenyl group, 2-cyanophenyl group, methoxycarbonylphenyl group, methyl ester group, diphenyl group, 3-cyanophenyl group, and nitrophenyl group were used.
(§1) Each of the above compounds was made into solution with concentration shown in Table 2 using dichloromethane as a solvent. […] The concentration of a sample solution was adjusted such that the intensity (Abs.) of absorption maximum wavelength was 0.100±0.005, and using a spectrophotometer (manufactured by Hitachi High-Technologies Corporation, U-3500), each fluorescence spectrum was measured with excitation wavelength (λex)=326 nm to 412 nm that was equal to absorption maximum wavelength. The fluorescence quantum yield was determined using 9,10-bis(phenyl ethynyl)anthracene (absolute fluorescence quantum yield=0.96) as a standard substance.
In FIG. 1 and Table 2, with regard to a substituent group, Ph represents a phenyl group, Me represents a methyl group, CO2Me represents a methyl ester group, OMe represents a methylalkoxy group, and CN represents a cyano group. Further, in Table λex represents excitation wavelength, ε represents a molar extinction coefficient, λem represents emission wavelength, φr represents a relative fluorescence quantum yield using 9,10-bis(phenyl ethynyl)anthracene (absolute fluorescence quantum yield=0.96) as a standard, and “−” represents no measurement data available.

[2] = Maximum absorption wavelength, maximum fluorescence wavelength and fluorescence quantum yield (Example 6); format: physicochemical; conditions: same manner as Example 3
Procedure: as §1
For each of the compounds shown in Table 3, the maximum absorption wavelength (λabs^max), maximum fluorescence wavelength (λem^max), and fluorescence quantum yield (ΦF) were measured. Further, the Hammett constant (σp) of substituent group was together described in Table 3. In Table 3, “-” represents no measurement data available. The measurement of the absorption wavelength, fluorescence wavelength, and fluorescence quantum yield was carried out in the same manner as described in Example 3. Here, a method of synthesizing compounds of 1o^a and 1r will be later described in Example 8. Compounds of 1e, 1n, 1f, 1g, 1l, 1k, 1h, and 1m, which are shown in Table 3 were synthesized by the method and condition described in Examples 1 to 2. Further, the compound 1a shown in Table 3 was synthesized under the under the same condition as in Example 1 and Example 2 except that a CO2CH3 part in the chemical formula 13 of the reaction formula (5) was replaced with a hydrogen atom. Thereby, the compound 1a having a triazapentalene backbone whose R^5 position was bound with the hydrogen atom was obtained.

[3] = substituent at R^5; cited from earlier work
[4] = Solvatochromic fluorescence of triazapentalenes in various solvents (Example 4); format: physicochemical; conditions: dichloromethane, acetonitrile, benzene
Procedure: The fluorescence of a triazapentalene compound whose substituent group was -PhCN was measured in various solvents. A method for measurement will be specifically described below.
As solvents, dichloromethane (manufactured by Junsei Chemical Co., Ltd.), acetonitrile (manufactured by Kanto Chemical Co., Inc.), benzene (manufactured by Nacalai Tesque, Inc.), and acetone (manufactured by Nacalai Tesque, Inc.) were individually used.
Each of the triazapentalene compound whose substituent group was -PhCN was dissolved in the above solvent. With regard to the concentration of each solution, the concentration of solution with dichloromethane being used as the solvent was 5.81×10^−6 mol/L, the concentration of solution with acetonitrile being used as the solvent was 3.65×10^−6 mol/L, the concentration of solution with benzene being used as the solvent was 5.43×10^−6 mol/L, and the concentration of solution with acetone being used as the solvent was 6.63×10^−6 mol/L. Using a […] (manufactured by Hitachi High-Technologies Corporation, F-4500), the ultraviolet absorption spectrum was measured, and the absorption maximum wavelength (λmax) was determined to be 382 nm. […] The fluorescence quantum yield was determined using 9,10-bis(phenyl ethynyl)anthracene (absolute fluorescence quantum yield=0.96) as a standard substance.

[5] = Fluorescence of disubstituted product (Example 7); format: physicochemical; conditions: CH2Cl2 solution, excitation wavelength 370 nm
Excerpt: Disubstituted products other than the disubstituted product represented by the chemical formula 20 are synthesized by the same method as the disubstituted product represented by the chemical formula 20. The numerical values in Table 4 and Table 5 were obtained in CH2Cl2 solution under a condition of an excitation wavelength of 370 nm

[6] = standard substance; cited from earlier work

Compound | ε (molar extinction coefficient) ([1]; dichloromethane solution) | λex (excitation wavelength, equal to absorption maximum wavelength λmax) ([1]; dichloromethane solution) [nm] | λem (emission wavelength) ([1]; dichloromethane solution) [nm] | φr (relative fluorescence quantum yield) [1] [%] | λabs^max (maximum absorption wavelength) [2] [nm] | λem^max (maximum fluorescence wavelength) [2] [nm] | φF (fluorescence quantum yield) [2] | fluorescence intensity (FIG. 1) ([1]; dichloromethane solution) | absorption maximum wavelength (λmax) ([4]; acetone solutions) [nm] | solvatochromism of fluorescence spectrum (FIG. 2) ([4]; acetone, λex 382 nm) | λabs (absorption wavelength) [5] [nm] | λem (fluorescence wavelength) [5] [nm] | φF (quantum yield) [5] | Hammett σP of substituent group [3] | absolute fluorescence quantum yield [6]
Cn1c(-c2ccc(C#N)cc2)cn2ccc[n+]12 [Compound 1h] | 2.85 10^3 cm − M^−1 | 381 | 509 | 18 | 381 | 509 | 0.18 | stronger fluorescence intensity | 382 | significant solvatochromism was observed | 381 | 509 | 0.18 | 0.71 | 
Cn1c(-c2ccccc2)cn2ccc[n+]12 [Compound 1f] | 3.82 10^3 cm − M^−1 | 326 | 419 | 3.0 |  |  |  |  |  |  |  |  |  | 0.00 | 
C(#Cc1c2ccccc2c(C#Cc2ccccc2)c2ccccc12)c1ccccc1 [9,10-bis(phenylethynyl)anthracene] |  |  |  |  |  |  |  |  |  |  |  |  |  |  | 0.96

Now from value to molecule, other results behind:

ε (molar extinction coefficient) ([1]; dichloromethane solution) | λex (excitation wavelength, equal to absorption maximum wavelength λmax) ([1]; dichloromethane solution) [nm] | λem (emission wavelength) ([1]; dichloromethane solution) [nm] | φr (relative fluorescence quantum yield) [1] [%] | λabs^max (maximum absorption wavelength) [2] [nm] | λem^max (maximum fluorescence wavelength) [2] [nm] | φF (fluorescence quantum yield) [2] | fluorescence intensity (FIG. 1) ([1]; dichloromethane solution) | absorption maximum wavelength (λmax) ([4]; acetone solutions) [nm] | solvatochromism of fluorescence spectrum (FIG. 2) ([4]; acetone, λex 382 nm) | λabs (absorption wavelength) [5] [nm] | λem (fluorescence wavelength) [5] [nm] | φF (quantum yield) [5] | Compound | Hammett σP of substituent group [3] | absolute fluorescence quantum yield [6]
5.70 10^3 cm − M^−1 | 330 | 413 | 6.2 | 330 | 413 | 0.062 |  |  |  |  |  |  | COc1ccc(-c2cn3ccc[n+]3n2C)cc1 [Compound 1n] | −0.28 | 
 | 330 | 481 |  |  |  |  |  |  |  |  |  |  | Cn1c(-c2cccc(C#N)c2)cn2ccc[n+]12 |  | 
3.02 10^3 cm − M^−1 | 376 | 510 | 51 | 376 | 510 | 0.51 |  |  |  |  |  |  | COC(=O)c1ccc(-c2cn3ccc[n+]3n2C)cc1 [Compound 1k] | 0.47 | 
 | 412 | 556 | 16 | 412 | 556 | 0.16 |  |  |  |  |  |  | Cn1c(-c2ccc([N+](=O)[O-])cc2)cn2ccc[n+]12 [Compound 1m] | 0.81 | 
